Source: PMC7088272 (Biotechnology Letters, 2016)

Legend:
ZIKV NS2B-NS3^pro [1] = molecular target: T1, ZIKV NS2B-NS3^pro (Zika virus, UniProt A0A024B7W1); test: FRET-based inhibition assay of ZIKV NS2B-NS3pro protease; assay type: biochemical; details: for inhibition at 100 µM: pH 7, 100 µM inhibitor
ZIKV NS2B-NS3^pro [2] = molecular target: T1, ZIKV NS2B-NS3^pro; test: Inhibitor kinetic study; assay type: biochemical
[3] = 26 μM FRET substrate, 8.7 μg enzyme, 50 mM Tris/HCl pH 7.0, 25 °C, 11 min

T1 sequence (A0A024B7W1 1421-1469): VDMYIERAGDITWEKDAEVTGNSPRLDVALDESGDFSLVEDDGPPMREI
T1 sequence (A0A024B7W1 1503-1688): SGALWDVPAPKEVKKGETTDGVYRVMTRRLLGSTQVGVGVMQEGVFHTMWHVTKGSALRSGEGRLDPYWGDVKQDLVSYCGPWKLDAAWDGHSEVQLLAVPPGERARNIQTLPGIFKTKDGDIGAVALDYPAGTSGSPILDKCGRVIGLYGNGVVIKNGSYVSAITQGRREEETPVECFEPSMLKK

| SMILES | IC50 (ZIKV NS2B-NS3^pro [1]) [µM] | inhibition at 100 µM (ZIKV NS2B-NS3^pro [1]; [3]) [%] | further results |
| --- | --- | --- | --- |
| O=c1c(O[C@@H]2O[C@H](CO)[C@@H](O)[C@H](O)[C@H]2O)c(-c2ccc(O)cc2)oc2cc(O)cc(O)c12 [Astragalin] | 112 ± 5.5 | > 40 |  |
| O=C(O[C@@H]1Cc2c(O)cc(O)cc2O[C@@H]1c1ccc(O)c(O)c1)c1cc(O)c(O)c(O)c1 [Epicatechin gallate] |  | > 40 |  |
| O=C(O[C@@H]1Cc2c(O)cc(O)cc2O[C@H]1c1cc(O)c(O)c(O)c1)c1cc(O)c(O)c(O)c1 [Gallocatechin gallate] | 99 ± 1.8 | > 40 |  |
| O=c1cc(-c2ccc(O)c(O)c2)oc2cc(O)cc(O)c12 [Luteolin] | 53 ± 1.3 | > 40 | inhibition activity compared to chrysin (ZIKV NS2B-NS3^pro [1]; ratio of inhibition at 100 µM): 2.8 times |
| O=c1c(O)c(-c2cc(O)c(O)c(O)c2)oc2cc(O)cc(O)c12 [Myricetin] |  |  | Ki (ZIKV NS2B-NS3^pro [2]): 8.9 ± 1.9 µM; inhibition type (ZIKV NS2B-NS3^pro [2]; Lineweaver–Burk and Dixon plots, inhibitor 0–50 µM, substrate 10–50 µM): mixed type; Inhibition (%) (ZIKV NS2B-NS3^pro [1]; 100 µM inhibitor, 26 μM FRET substrate, 8.7 μg enzyme, 50 mM Tris/HCl pH 7.0, 25 °C, 11 min): more than 40% |
| C[C@@H]1O[C@@H](O[C@H]2[C@H](Oc3cc(O)c4c(c3)O[C@H](c3ccc(O)cc3)CC4=O)O[C@H](CO)[C@@H](O)[C@@H]2O)[C@H](O)[C@H](O)[C@H]1O [Naringin] |  |  | inhibitory activity against ZIKV NS2B-NS3^pro (in words) (ZIKV NS2B-NS3^pro [1]; 100 µM inhibitor): weak inhibitory activities |
| C[C@@H]1O[C@@H](OC[C@H]2O[C@@H](Oc3c(-c4ccc(O)c(O)c4)oc4cc(O)cc(O)c4c3=O)[C@H](O)[C@@H](O)[C@@H]2O)[C@H](O)[C@H](O)[C@H]1O [Rutin] |  | > 40 |  |
